Measurements reported in patent US20130210852A1, “METHODS FOR TREATING INFECTION” (priority 2010, published 2013).
Converted amounts (≈) assume the structure as drawn. “Also recorded” adds a separate entry of the source. Read-outs that look alike come from different tables or passages of the source.

Experiments:
[1] = system: EAEC strain O42 adherence to A549 cells; type: cell-based, human; settings: 24 h pretreatment with 64 mg (FIG. 2: 64 μg/ml), EAEC 3 h
S. sonnei on HeLa cells = test: S. sonnei adherence and internalization in HeLa cells; type: cell-based, human; settings: HeLa cells pretreated 24 h
[2] = system: EAEC adherence with dialyzed conditioned medium of HEp-2 cells; test: Effect of dialyzed HEp-2 supernatants on EAEC adherence; type: cell-based, human; set-up: dose or concentration left out as unconfirmed; settings: HEp-2 treated 24 h, supernatant dialyzed; chambers with or without HEp-2 cells, 3 h
Description: HEp-2 cells were cultured in T-175 flasks as described above. […] After 24 h, the medium was collected, loaded into regenerated cellulose dialysis tubing (cutoff, 6 to 8 kDa; Spectra/Por, Rancho Domiguez, Calif.), and dialyzed against 4 liters of PBS changed four times. Each dialysis step lasted at least 6 h and was carried out at 4° C. Dialyzed supernatants were either used immediately in adherence assays or stored at −20° C. until use.
The effect of supernatants on EAEC adherence was determined by mixing EAEC with the dialyzed media from the different antibiotic (or control) treatment groups and adding the bacteria to HEp-2 cells cultured in chambered slides or to chambered slides with no HEp-2 cells. Adherence was visualized microscopically as described above.

[3] = system: enterotoxigenic E coli strains; test: MIC against rifaximin by agar dilution, ETEC isolates; type: cell-based; settings: Escherichia coli
Description: (§1) Five enterotoxigenic E coli strains, 2 enteroaggregative E coli strains, and 1 S sonnei isolate were included in the study. The isolates had been identified previously from patients with TD acquired in Guadalajara, Mexico, during the summer of 2004 (5). […] The susceptibility of all isolates to rifaximin was determined by agar dilution methodology following the recommendations of the Clinical and Laboratory Standards Institute.

[4] = system: enteroaggregative E coli strains; test: MIC against rifaximin by agar dilution, EAEC isolates; type: cell-based; settings: Escherichia coli; 2 EAEC isolates
Description: as §1

S sonnei isolate [5] = test: MIC against rifaximin by agar dilution, S sonnei isolate; type: cell-based; settings: Shigella sonnei
Description: as §1

S sonnei isolate [6] = test: Isolate viability after rifaximin exposure, S sonnei; type: cell-based, Shigella sonnei
[7] = system: ETEC isolates (ST, LT, CS2/CS3, CS6); type: cell-based, Escherichia coli; as to Expression of virulence factor CS2/CS3 in ETEC isolates: key: + = present; − = not present; NV, not viable; as to Expression of virulence factor CS6 in ETEC isolates: key: + = present; − = not present; NV, not viable; as to Expression of virulence factor LT in ETEC isolates: key: + = present; − = not present; NV, not viable; as to Expression of virulence factor ST in ETEC isolates: key: + = present; − = not present; NV, not viable
[8] = system: HCT-8 cells infected with rifaximin-exposed EAEC strains; test: HCT-8 cell culture assay for interleukin-8 (IL-8) release; type: cell-based, human
Description: The human intestinal adenocarcinoma cell line, HCT-8, was used to study inflammatory modulators as previously published (Huang, 2004 #15). Monolayers of HCT-8 cells (ATCC CCL-244; American Type Culture Collection, Rockville, Md.) were grown in 24-well culture plates (Corning Costar, Corning, N.Y.) in an RPMI 1640 medium (Sigma-Aldrich Co, St Louis, Mo.) supplemented with 100 U/mL of penicillin, 100 μg/mL of streptomycin, and 0.25 μg/mL of amphotericin B. They were maintained in a medium supplemented with 10% fetal bovine serum (HyClone, Logan, Utah) and grown until approximately 4×10^5 cells/well confluence.
HCT-8 cells were infected with EAEC strains recovered from MacConkey agar in triplicate at a 100:1 ratio in an antibiotic- and serum-free RPMI 1640 medium. Cells were incubated for 3 hours in a humidified chamber at 37° C. in an atmosphere containing 5% CO2, after which supernatants were collected. The supernatant concentration of IL-8 in each well was determined by using a commercially available enzyme-linked immunosorbent assay kit for human IL-8 (R&D Systems, Minneapolis, Minn.). All samples were tested twice, and the average value was reported.

C difficile [9] = settings: cited from earlier work
C difficile [10] = settings: cited from earlier work; remark: listed apart in the source
HEp-2 cells = test: Cytokine arrays of HEp-2 supernatants (Panomics); settings: antibiotic 64 μg/ml, 24 h
ETEC strains = test: Isolate viability after rifaximin exposure, ETEC
[11] = rifaximin 8 mg/L, exposure 4 hrs
[12] = rifaximin 8 mg/L, exposure 8 hrs
[13] = rifaximin 8 mg/L, exposure 18 hrs
[14] = rifaximin 8 mg/L, exposure 24 hrs
[15] = rifaximin 32 mg/L, exposure 4 hrs
[16] = rifaximin 32 mg/L, exposure 8 hrs
[17] = rifaximin 32 mg/L, exposure 18 hrs
[18] = rifaximin 64 mg/L, exposure 4 hrs
[19] = rifaximin 64 mg/L, exposure 8 hrs
[20] = 201 isolates, Canada, 1992 to 2007

CO[C@H]1/C=C/O[C@@]2(C)Oc3c(C)c(O)c4c(O)c(c5c(nc6cc(C)ccn65)c4c3C2=O)NC(=O)/C(C)=C\C=C\[C@H](C)[C@H](O)[C@@H](C)[C@@H](O)[C@@H](C)[C@H](OC(C)=O)[C@@H]1C [Rifaximin, (2S,16Z,18E,20S,21S,22R,23R,24R,25S,26S,27S,28E)-5,6,21,23,25 Pentahydroxy-27-methoxy-2,4,11,16,20,22,24,26-octamethyl-2,7-(epoxypentadeca-(1,11,13)trienimino)benzofuro (4,5-e) pyrido(1,2,-a) benzimidazole-1,15(2H)-dione,25-acetate]
EAEC adherence to A549 cells [1]: significantly reduced | S. sonnei attachment (S. sonnei on HeLa cells): no effect | S. sonnei internalization (S. sonnei on HeLa cells; gentamicin protection): no effect | EAEC adherence after mixing with dialyzed supernatants of antibiotic-treated HEp-2 cells [2]: adhered poorly | MIC ([3]; read-out: MIC, ETEC, 2 ETEC isolates): 128 mg/L (≈ 163 µM) | MIC ([3]; read-out: MIC, all ETEC and EAEC isolates, 5 ETEC and 2 EAEC isolates): 64 to 128 mg/L (≈ 81.4 to 163 µM) | MIC [4]: 64 mg/L (≈ 81.4 µM) | MIC (S sonnei isolate [5]): 16 mg/L (≈ 20.4 µM) | S sonnei viability after exposure (S sonnei isolate [6]; rifaximin 8 mg/L for 4, 8, 18, and 24 hours): viable | S sonnei viability after exposure (S sonnei isolate [6]; rifaximin 32 or 64 mg/L at any time point): not viable | Expression of all examined virulence factors (ST, LT, CS2/CS3, CS6) by viable ETEC isolates ([7]; 4- and 8-hour exposure to rifaximin 8, 32, and 64 mg/L): expressed all examined virulence factors | Expression of all examined virulence factors (ST, LT, CS2/CS3, CS6) by viable ETEC isolates ([7]; 18-hour time point, rifaximin 8 mg/L): all virulence factors were expressed | Expression of all examined virulence factors (ST, LT, CS2/CS3, CS6) by viable ETEC isolates ([7]; 18-hour time point, rifaximin 32 mg/L): no factors were seen | Expression of all examined virulence factors (ST, LT, CS2/CS3, CS6) by viable ETEC isolates ([7]; 24-hour exposure to rifaximin 8 mg/L): did not express any virulence factors | Expression of virulence factor CS2/CS3 in ETEC isolates [7, 11]: + | Expression of virulence factor CS6 in ETEC isolates [7, 11]: + | Expression of virulence factor LT in ETEC isolates [7, 11]: + | Expression of virulence factor ST in ETEC isolates [7, 11]: + | Expression of virulence factor ST/LT in ETEC isolates [7, 11]: + | Expression of virulence factor CS2/CS3 in ETEC isolates [7, 12]: + | Expression of virulence factor CS6 in ETEC isolates [7, 12]: + | Expression of virulence factor LT in ETEC isolates [7, 12]: + | Expression of virulence factor ST in ETEC isolates [7, 12]: + | Expression of virulence factor ST/LT in ETEC isolates [7, 12]: + | Expression of virulence factor CS2/CS3 in ETEC isolates [7, 13]: + | Expression of virulence factor CS6 in ETEC isolates [7, 13]: + | Expression of virulence factor LT in ETEC isolates [7, 13]: + | Expression of virulence factor ST in ETEC isolates [7, 13]: + | Expression of virulence factor ST/LT in ETEC isolates [7, 13]: + | Expression of virulence factor CS2/CS3 in ETEC isolates [7, 14]: − | Expression of virulence factor CS6 in ETEC isolates [7, 14]: − | Expression of virulence factor LT in ETEC isolates [7, 14]: − | Expression of virulence factor ST in ETEC isolates [7, 14]: − | Expression of virulence factor ST/LT in ETEC isolates [7, 14]: − | Expression of virulence factor CS2/CS3 in ETEC isolates [7, 15]: + | Expression of virulence factor CS6 in ETEC isolates [7, 15]: + | Expression of virulence factor LT in ETEC isolates [7, 15]: + | Expression of virulence factor ST in ETEC isolates [7, 15]: + | Expression of virulence factor ST/LT in ETEC isolates [7, 15]: + | Expression of virulence factor CS2/CS3 in ETEC isolates [7, 16]: + | Expression of virulence factor CS6 in ETEC isolates [7, 16]: + | Expression of virulence factor LT in ETEC isolates [7, 16]: + | Expression of virulence factor ST in ETEC isolates [7, 16]: + | Expression of virulence factor ST/LT in ETEC isolates [7, 16]: + | Expression of virulence factor CS2/CS3 in ETEC isolates [7, 17]: − | Expression of virulence factor CS6 in ETEC isolates [7, 17]: − | Expression of virulence factor LT in ETEC isolates [7, 17]: − | Expression of virulence factor ST in ETEC isolates [7, 17]: − | Expression of virulence factor ST/LT in ETEC isolates [7, 17]: − | Expression of virulence factor CS2/CS3 in ETEC isolates [7, 18]: + | Expression of virulence factor CS6 in ETEC isolates [7, 18]: + | Expression of virulence factor LT in ETEC isolates [7, 18]: + | Expression of virulence factor ST in ETEC isolates [7, 18]: + | Expression of virulence factor ST/LT in ETEC isolates [7, 18]: + | Expression of virulence factor CS2/CS3 in ETEC isolates [7, 19]: + | Expression of virulence factor CS6 in ETEC isolates [7, 19]: + | Expression of virulence factor LT in ETEC isolates [7, 19]: + | Expression of virulence factor ST in ETEC isolates [7, 19]: + | Expression of virulence factor ST/LT in ETEC isolates [7, 19]: + | IL-8 production from HCT-8 cells infected with rifaximin-exposed EAEC ([8]; EAEC exposed to rifaximin 64 mg/L for 4 hours): caused IL-8 production | IL-8 production from HCT-8 cells infected with rifaximin-exposed EAEC ([8]; EAEC exposed to rifaximin 8 or 32 mg/L for 4 or 8 hours): elicited production of IL-8 | IL-8 production from HCT-8 cells infected with rifaximin-exposed EAEC ([8]; all other time points and rifaximin concentrations): Interleukin-8 was either undetected following HCT-8 infection with EAEC strains, or EAEC strains were not viable | IL-8 production from HCT-8 cells infected with rifaximin-exposed EAEC ([8]; viable EAEC exposed to rifaximin 8, 32, or 64 mg/L for 18 hours or 8 mg/L for 24 hours): did not elicit IL-8 production | isolates resistant to rifaximin, based on MIC values (C difficile [9]; 110 C difficile isolates): 2.7% | MIC50 against C difficile (C difficile [9]; 110 isolates, 1983 to 2004): 0.0075 mg/L (≈ 0.00954 µM) | MIC90 against C difficile (C difficile [9]; 110 isolates, 1983 to 2004): 0.015 mg/L (≈ 0.0191 µM) | isolates with MIC values >2 μg/mL (C difficile [10]; 201 C difficile isolates): 4% | MIC50 against C difficile (C difficile [10]; [20]): 0.008 mg/L (≈ 0.0102 µM) | MIC90 against C difficile (C difficile [10]; [20]): 0.015 mg/L (≈ 0.0191 µM) | cytokine profile of HEp-2 supernatants (HEp-2 cells): contained detectable levels of RANTES and IL-4 only; also recorded: reduced the expression of various proinflammatory cytokines | ETEC viability after exposure (ETEC strains; rifaximin 8 mg/L, 24-hour exposure): viable | ETEC viability after exposure (ETEC strains; rifaximin 64 mg/L for 18 hours or 32 and 64 mg/L for 24 hours): No ETEC isolates were viable | ETEC viability after exposure (ETEC strains; rifaximin 8, 32, and 64 mg/L for 4 and 8 hours, 8 and 32 mg/L for 18 hours): viable
